# Experimental data: patent US12486255B2, “Modulators of RAS GTPase” (Tosk, Inc., priority 2018, dated 2025)
# Where two headings read alike, the source gives them in different places.
# How the values were obtained:
# [1] = test system: flies expressing G12V in their wing; assay: Fly assay, wing phenotype reversal; assay type: in vivo, Drosophila
# From the text: Each wing from mutant flies receiving treatment with either water or compound received a score from two independent scorers according to the scheme outlined in the schematic. The analysis of the scores given to the compound group was compared to the scores given for the control (water) group.
# Embryo preparation. GAL4 virgin ♀ were collected over a period of 3-5 days, then crossed with kRAS G12V (3M) ♂ inside a plastic condo supplied with grape agar containing yeast paste. Flies were acclimated for 2 days and embryos present after a span of 4-5 hours were collected along with the agar plate and incubated for 24 hours. The next day, embryos were washed off the agar plate with Embryo Wash solution (120 mM NaCl, 0.03% Triton X) and resuspended in Embryo Inoculation solution (120 mM NaCl, 420 mM Sucrose, 0.05% Triton X-100). Embryos were counted and diluted to 15 embryos/10 μL. 150 embryos (100 μL) were dispensed into each vial.
# Food-drug admix preparation. Each fly vial contains 1.5 g of fly food in 4 ml water. The quantity of drug needed is calculated for a total of 4 vials, each vial containing 10 μM of Structure 2. This is equivalent to 0.014 mg of Structure 2/vial, for a total of 0.056 mg of Structure 2.
# A stock solution of 0.1 mg/mL Structure 2 in ethanol is prepared. A 500-ml round bottom flask is charged with 6 g of fly food (1.5 g×4), to which is added 20 mL of ethanol, ensuring that the food is entirely covered in solvent. To this heterogeneous solution is added an appropriate amount of Structure 2 stock solution, containing the calculated required quantity, in this case 0.56 mL stock solution.
# The ethanol is evaporated under reduced pressure via a rotary evaporator equipped with a bump trap. The resulting dry food is added to three vials, each containing 1.5 g, so that the experiment is performed in triplicate. The quantity is calculated initially for 4 vials, because some food will be stuck to the walls of the round bottom flask and some is also invariably lost in the bump trap during the solvent evaporation step. Control vials lacking Structure 2 or Structure 3 are also analyzed and undergo the exact same food preparation and solvent extraction procedure.
# Embryo addition to vials. After all the food-drug admix is prepared and added to the respective vials, to each vial is added 4 mL of water and the vial briefly vortexed. To this liquid mixture is added the embryo solution (100 μL), the vials capped and placed in an incubator or fly room.
# Wing mounting and scoring. Flies hatch 10-12 days after the above experimental setup is performed. The resulting adult flies are submerged in a 3:1 70% ethanol:glycerol solution for 24 hours, then wings are dissected with curved Vannas spring scissors (FST #15001-08). The wings are mounted in an 80% glycerol solution on a microscope slide under coverslip seal.
# Pictures of the wings were taken using an Accu-Scope microscope equipped with a digital camera and connected to a laptop containing the Accu-Scope Micrometric SE Premium software. The wings were scored according to the following scoring tree:
# Wing score analysis. After each wing received a score from two independent scorers, the analysis of the scores given to the Structure 2 and 3 groups was compared to the scores given for the control group and was performed using the IBM SPSS software.
# Wings that received a score of 3 or above are considered “reversed”, since their phenotype is closer to WT than to kRAS G12V bearing Drosophila. The findings are plotted in FIG. 9. […]
# [2] = Pharmacokinetic study in mice; assay type: in vivo; conditions: ip, 10 mg/kg, CD-1 mice, 10 mg/kg; for Vd/F: CD-1, mouse, read-out: Vz/F
# Method: Pharmacokinetic studies were carried out using 10 weeks old CD-1 mice. Structure 2 and Structure 3 were injected ip, 3 mg/kg and 10 mg/kg, respectively, at 8 time points (0, 0.25, 0.5, 1, 2, 4, 8 and 24 hours post-dose). Blood was collected from 3 animals/time point and concentrations of Structure 2 in plasma determined using LC/MS.
# [3] = Multi-day safety study in mice; assay type: in vivo; conditions: female CD1 mice, 10 mg/kg ip daily for 6 days
# Method: The multi-day safety study used female, 10 week old, CD1 mice (4/treatment group) dosed with DMSO. Mice were administered 2 mg/kg of Structure 2 or 10 mg/kg Structure 3, ip, daily for 6 days and evaluated for changes clinical chemistry values, hematology values and animal weight as well as signs of health and grooming habits.
# Heparinized blood samples were obtained by retro-orbital puncture on Day 6, 12 hours after the last dose of Structure 2. The plasma harvested from the blood was analyzed for standard clinical chemistry parameters (ALB. ALP, ALT, AMY, TBIL, BUN, CA, PHOS, CRE GLU, NA, K, TP & GLOB) and hematology (WBC, LYM, MON, GRA, RBC, HGB, HCT, MCV, MCH, MCHC, RDWc, PLT, PCT, MPV, PDWc) analytes (see definitions herein). Animal weight changes were also monitored. Values for all analytes were analyzed by one way ANOVA plus post-hoc Bonferroni using SPSS (IBM, Armonk, NY).
# [4] = test system: phosphorylated ERK 1/2 (T202/Y204); assay: Phosphorylated ERK bioassay (Western blot, SW480 cells); assay type: cell-based, human; conditions: 3 μM, 24 hours, in the presence of serum
# Method: As described herein, the main downstream target for kRAS is ERK (Samatar et al., Targeting RAS-ERK signaling in cancer: promises and challenges. Nat Rev Drug Discov. 2014; 13:928-42). kRAS activates ERK leading to phosphorylated ERK. A compound that suppresses kRAS activity is expected to lower phosphorylated ERK.
# Test articles abrogate the expression of phosphorylated ERK (T202/Y204) SW480 cells were subjected to test article incubation at 3 μM for 24 hours in the presence of serum to mimic natural growth environment. Cells were extracted and total protein of samples normalized through BCA assay. Processed extracts were subjected to SDS-PAGE/Western blot and blotted for phosphorylated ERK 1/2 (T202/Y204); ERK 1/2; and α-Tubulin.
# The compound U0126 in FIG. 8 is a MEK inhibitor which is known to suppress phosphorylation of ERK. The compound was tested along with the test articles to serve as a positive control.
smiles,measurement,setting,value
"c1ccc(-n2cc(CN3CCN(c4ncnc5ccccc45)CC3)cn2)cc1 [Structure 3, 4-(4-((1-phenyl-1H-pyrazol-4-yl)methyl)piperazin-1-yl)quinazoline]",wing scores compared to the control group,"[1]; Tukey HSD and LSD p<0.001, Mann Whitney p=0.002",significantly different from the control group
same,Reversal Phenotype (%),"[1]; wings with score of 3 or above, Structure 2 at 10 μmolar, control 8.27",16%
same,Vd/F,"[2]; plasma, plasma",3.19 L/kg
same,Vd/F,"[2]; plasma, plasma, text statement",> 3 L/kg
same,mean resident times (MRT),[2],approximately one to two
same,AUCINF,[2]; plasma,4.12 (Microgram * Hour)/mL
same,AUC_%Extrap,[2]; plasma,4.92%
same,AUClast,[2]; plasma,3.92 (Microgram * Hour)/mL
same,CI/F,[2]; plasma,4.04 mL/min/kg
same,Concentrationmax,[2]; plasma,3.38 Microgram/mL
same,Lambda_z,[2]; plasma,0.76 h⁻¹
same,MRTINF,[2]; plasma,1.25 h
same,MRTlast,[2]; plasma,1.03 h
same,Timelast,[2]; plasma,4.00 h
same,concentration at 4 Hour,"[2]; mouse, plasma, read-out: Concentrationlast",150 ng/mL
same,body weight or grooming habits versus dosing vehicle treated animals,[3],no statistically significant difference
same,clinical chemistry changes versus dosing vehicle treated animals,[3],no significant clinical chemistry changes
same,ALB,[3]; Day 6,4.0 ± 0.10 g/dL
same,ALP,[3]; Day 6,106.3 ± 21.40 U/L
same,ALT,[3]; Day 6,77.3 ± 16.30 U/L
same,AMY,[3]; Day 6,932.0 ± 98.90 U/L
same,BUN,[3]; Day 6,22.0 ± 5.40 mg/dL
same,CRE,[3]; Day 6,<0.40 mg/dL
same,Ca^++,[3]; Day 6,9.7 ± 0.10 mg/dL
same,GLOB,[3]; Day 6,1.2 ± 0.10 g/dL
same,GLU,[3]; Day 6,309.0 ± 45.10 mg/dL
same,GRA,[3]; Day 6,0.4 ± 0.20 10^9/l
same,GRA (%),[3]; Day 6,7.0 ± 3.00%
same,HCT,[3]; Day 6,43.1 ± 1.80%
same,HGB,[3]; Day 6,14.1 ± 0.50 g/dL
same,K^+,[3]; Day 6,4.6 ± 0.20 mmol/L
same,LYM,[3]; Day 6,4.6 ± 1.40 10^9/l
same,LYM (%),[3]; Day 6,90.0 ± 4.30%
same,MCH,[3]; Day 6,16.0 ± 0.70 pg
same,MCHC,[3]; Day 6,32.7 ± 2.50 g/dL
same,MCV,[3]; Day 6,49.3 ± 4.30 fL
same,MON,[3]; Day 6,0.2 ± 0.20 10^9/l
same,MON (%),[3]; Day 6,3.1 ± 2.00%
same,MPV,[3]; Day 6,6.7 ± 0.40 fL
same,NA^+,[3]; Day 6,147.8 ± 2.20 mmol/L
same,PCT,[3]; Day 6,0.4 ± 0.10%
same,PDWc,[3]; Day 6,30.0 ± 1.50%
same,PHOS,[3]; Day 6,9.8 ± 0.40 mg/dL
same,PLT,[3]; Day 6,578.8 ± 86.70 10^9/l
same,RBC,[3]; Day 6,8.8 ± 0.50 10^12/l
same,RDWc,[3]; Day 6,17.4 ± 0.70%
same,TBIL,[3]; Day 6,0.4 ± 0.00 mg/dL
same,TP,[3]; Day 6,5.2 ± 0.20 g/dL
same,WBC,[3]; Day 6,5.2 ± 1.80 10^9/l
same,phosphorylated ERK (T202/Y204),[4],dramatically decrease phosphorylated ERK
